From US20070149508A1, “Six membered heteroaromatic inhibitors targeting resistant kinase mutations” (TargeGen, Inc., priority 2005, published 2007)
Where a name gives a salt, the structure may show the parent alone.

Assays:
Abl (T315I) = molecular target: T1, Abl (T315I) (Homo sapiens, UniProt P00519, T315I); assay: Abl (T315I) Kinase Assay (KinaseGlo luminescent detection of residual ATP); format: biochemical; settings: Abl (T315I) IC50 (nM), Abl (T315I) (Upstate, 17 ng/well), Abltide 100 uM, ATP 500 nM, 60 minutes at 37° C.
T1 construct: purchased Upstate
Protocol: The assay was performed similarly to the Abl kinase assay. Abl (T315I) (Upstate, 17 ng/well); Abltide substrate (100 uM) and ATP (500 nM) comprised the reaction mixture. Compound was similarly diluted, and the reaction plate was incubated for 60 minutes at 37° C.

Abl kinase = Abl kinase (Homo sapiens, UniProt P00519); assay: biochemical; settings: Abl IC50 (nM), Abl kinase (Invitrogen, 20 ng/well), Abltide 100 μM, ATP 500 nM, 37° C. for 60 minutes, top concentration 10 uM

SMILES | IC50 (Abl (T315I)) [nM] | IC50 (Abl kinase) [nM]
CN1CCN(S(=O)(=O)c2cccc(Nc3ncc(/C=C/c4cccc5[nH]ccc45)cn3)c2)CC1 [5-[(E)-2-(1H-indol-4-yl)vinyl]-N-{3-[(4-methylpiperazin-1-yl)sulfonyl]phenyl}pyrimidin-2-amine] | ~10000 | 784
O=S(=O)(c1ccc(Nc2ncc(/C=C/c3cccc(-c4ncc[nH]4)c3)cn2)cc1)C1CCNCC1 [5-((E)-3-(1H-imidazol-2-yl)styryl))-N-(4-(piperidin-4-ylsulfonyl)phenyl)pyrimidin-2-amine] | 2720 | 159
Nc1nc2ccc(/C=C/c3cnc(Nc4ccc(S(=O)(=O)C5CCNCC5)cc4)nc3)cc2s1 [6-[(E)-2-(2-{[4-(piperidin-4-ylsulfonyl)phenyl]amino}pyrimidin-5-yl)vinyl]-1,3-benzothiazol-2-amine trifluoroacetic acid salt] | 58 | 50
Cc1cccc(/C=C/c2cnc(Nc3ccc(S(=O)(=O)C4CCNCC4)cc3)nc2)c1 [5-(3-(methyl)styryl)-N-(4-(piperidin-4-ylsulfonyl)phenyl)pyrimidin-2-amine. TFA] | 562 | 51
O=S(=O)(CCCN1CCNCC1)c1ccc(Nc2ncc(/C=C/c3cccc4[nH]ccc34)cn2)cc1 [{5-[2-(1H-Indol-4-yl)-vinyl]-pyrimidin-2-yl}-[4-(3-piperazin-1-yl-propane-1-sulfonyl)-phenyl]-amine] | 488 | 54
O=S(=O)(c1ccc(Nc2ncc(/C=C/c3ccc(-c4cn[nH]c4)cc3)cn2)cc1)N1CCNCC1 [N-[4-(piperazin-1-ylsulfonyl)phenyl]-5-{(E)-2-[4-(1H-pyrazol-4-yl)phenyl]vinyl}pyrimidin-2-amine] | 1230 | 3800
O=S(=O)(c1ccc(Nc2ncc(/C=C/c3cc(Cl)cc4[nH]nnc34)cn2)cc1)N1CCCNCC1 [[4-([1,4]Diazepane-1-sulfonyl)-phenyl]-{5-[2-(6-chloro-1H-benzotriazol-4-yl)-vinyl]-pyrimidin-2-yl}-amine] | 16 | 41
CCNC(=O)N1CCC(S(=O)(=O)c2ccc(Nc3ncc(/C=C/c4ccc5nc(N)sc5c4)cn3)cc2)CC1 [4-(4-{5-[2-(2-Amino-benzothiazol-6-yl)-vinyl]-benzenesulfonyl)-piperidine-pyrimidin-2-ylamino)-1-carboxylic acid ethylamide] | 237 | 233
O=S(=O)(c1ccc(Nc2ncc(/C=C/c3cccc(-c4cn[nH]c4)c3)cn2)cc1)C1CCNCC1 [5-(3-(1H-pyrazol-4-yl)styryl)-N-(4-(piperidin-4-ylsulfonyl)phenyl)-pyrimidin-2-amine Hydrochloride] | 1980 | 1740
Cc1cc(Nc2ncc(/C=C/c3ccc4nc(N)sc4c3)cn2)ccc1S(=O)(=O)N1CCCNCC1 [(E)-6-(2-(2-(4-(1,4-diazepan-1-ylsulfonyl)-3-methylphenylamino)pyrimidin-5-yl)vinyl)benzo[d]thiazol-2-amine] | 593 | 1060
O=C(Nc1nc2ccc(/C=C/c3cnc(Nc4ccc(S(=O)(=O)C5CCNCC5)cc4)nc3)cc2s1)c1cccc(C(F)(F)F)c1 [N-(6-((E)-2-(2-(4-(piperidin-4-ylsulfonyl)phenylamino)pyrimidin-5-(trifluoromethyl)benzamide Hydrochloride] | 332 | 967
NC1Cc2ccc(/C=C/c3cnc(Nc4ccc(S(=O)(=O)N5CCC(CO)CC5)cc4)nc3)cc2C1 (stereo not drawn) [[1-(4-{5-[2-(2-Amino-indan-5-yl)-vinyl]-pyrimidin-2-ylamino}-benzenesulfonyl)-piperidin-4-yl]-methanol] | 2790 | 13700
CN(C)CCN(C1CCNCC1)S(=O)(=O)c1ccc(Nc2ncc(/C=C/c3ccc4nc(N)sc4c3)cn2)cc1 [4-({5-[(E)-2-(2-amino-1,3-benzothiazol-6-yl)vinyl}pyrimidin-2-yl}amino)-N-[2-(dimethylamino)ethyl]-N-piperidin-4-ylbenzenesulfonamide] | 38 | 109
O=S(=O)(c1ccc(Nc2ncc(/C=C/c3ccc(C(F)F)cc3)cn2)cc1)C1CCNCC1 [5-(4-(difluoromethyl)styryl)-N-(4-(piperidin-4-ylsulfonyl)phenyl)pyrimidin-2-amine. Triflate] | 1330 | 429
Nc1nc2ccc(/C=C/c3cnc(Nc4ccc(S(=O)(=O)C5CCNCC5)cc4)nc3)cc2[nH]1 [6-[(E)-2-(2-{[4-(piperidin-4-ylsulfonyl)phenyl]amino}pyrimidin-5-yl)vinyl]-1H-benzimidazol-2-amine] | 169 | 192
O=S(=O)(c1ccc(Nc2ncc(/C=C/c3cc(C(F)(F)F)cc4[nH]nnc34)cn2)cc1)N1CCCNCC1 [[4-([1,4]Diazepane-1-sulfonyl)-phenyl]-{5-[2-(6-trifluoromethyl-1H-benzotriazol-4-yl)-vinyl]-pyrimidin-2-yl}-amine] | 67 | 59
N#Cc1ccc(Nc2ncc(/C=C/c3cccc4[nH]ccc34)cn2)cc1 [4-(5-((E)-2-(1H-indol-4-yl)vinyl)pyrimidin-2-ylamino)benzonitrile] | > 10000 | 174
Nc1nc2ccc(/C=C/c3cnc(Nc4ccc(S(=O)(=O)NCCO)c(N5CCNCC5)c4)nc3)cc2s1 [4-({5-[(E)-2-(2-amino-1,3-benzothiazol-6-yl)vinyl]pyrimidin-2-yl}amino)-N-(2-hydroxyethyl)-2-piperazin-1-ylbenzenesulfonamide] | 354 | 585
COCCN1CCN(S(=O)(=O)c2ccc(Nc3ncc(/C=C/c4ccc5nc(N)sc5c4)cn3)cc2)CC1 [6-[2-(2-{4-[4-(2-Methoxy-ethyl)-piperazine-1-sulfonyl]-phenylamino}-pyrimidin-5-yl)-vinyl]-benzothiazol-2-ylamine] | 380 | 1150
OCCN1CCN(c2cccc(Nc3ncc(/C=C/c4cccc5[nH]ccc45)cn3)c2)CC1 [2-(4-(3-(5-((E)-2-(1H-indol-4-yl)vinyl)pyrimidin-2-ylamino)phenyl)piperazin-1-yl)ethanol Hydrochloride] | – | 178

These reach a lower IC50 (Abl kinase). Values come first.

IC50 (Abl (T315I)) [nM] | IC50 (Abl kinase) [nM] | SMILES
192 | 32 | O=S(=O)(c1ccc(Nc2ccc(/C=C/c3cccc(O)c3)cn2)cc1)C1CCNCC1 [3-((E)-2-(6-(4-(piperidin-4-ylsulfonyl)phenylamino)pyridin-3-yl)vinyl)phenol hydrochloride]
96 | 31 | O=S(=O)(CC1CCNCC1)c1ccc(Nc2ncc(/C=C/c3cccc(O)c3)cn2)cc1 [3-(2-{2-[4-(Piperidin-4-ylmethanesulfonyl)-phenylamino]-pyrimidin-5-yl}-vinyl)-phenol]
297 | 30 | Oc1cccc(/C=C/c2cnc(Nc3ccc(OCCN4CCCC4)cc3)nc2)c1 [3-((E)-2-(2-(4-(2-(pyrrolidin-1-yl)ethoxy)phenylamino)pyrimidin-5-yl)vinyl)phenol trifluoroacetate]
40 | 25 | O=S(=O)(c1ccc(Nc2ncc(/C=C/c3ccc(O)c(O)c3)cn2)cc1)C1CCNCC1 [4-((E)-2-(2-(4-(piperidin-4-ylsulfonyl)phenylamino)pyrimidin-5-yl)vinyl)benzene-1,2-diol Hydrochloride]
450 | 22 | O=S(=O)(c1ccc(Nc2ncc(/C=C/c3cccc4[nH]ccc34)cn2)cc1)N1CCNCC1 [5-[(E)-2-(1H-indol-4-yl)vinyl]-N-{4-(piperazin-1-ylsulfonyl)phenyl]pyrimidin-2-amine]
231 | 20 | O=C(c1ccc(Nc2ncc(/C=C/c3cccc4[nH]ncc34)cn2)cc1)N1CCNCC1 [(4-(5-((E)-2-(1H-indazol-4-yl)vinyl)pyrimidin-2-ylamino)phenyl)(piperazin-1-yl)methanone hydrochloride]
1280 | 17 | O=C(Nc1cccc(/C=C/c2cnc(Nc3ccc(S(=O)(=O)C4CCNCC4)cc3)nc2)c1)c1cccc(C(F)(F)F)c1 [N-(3-((E)-2-(2-(4-(piperidin-4-ylsulfonyl)phenylamino)pyrimidin-5-yl)vinyl)phenyl)-3-(trifluoromethyl)benzamide Hydrochloride]
32 | 15 | O=S(=O)(c1ccc(Nc2ncc(/C=C/c3ccc(O)cc3)cn2)cc1)C1CCNCC1 [4-(2-{2-[4-(Piperidine-4-sulfonyl)-phenylamino]-pyrimidin-5-yl}-vinyl)-phenol]
156 | 15 | O=S(=O)(c1ccc(Nc2ncc(/C=C/c3ccc(Cl)c4[nH]ccc34)cn2)cc1)C1CCNCC1 [5-((E)-2-(7-chloro-1H-indol-4-yl)vinyl)-N-(4-(piperidin-ylsulfonyl)phenyl)pyrimidin-2-amine Hydrochloride]
113 | 10 | CN(C)CCN(C1CCNCC1)S(=O)(=O)c1ccc(Nc2ncc(/C=C/c3cccc4[nH]ncc34)cn2)cc1 [N-[2-(dimethylamino)ethyl]-4-({5-[(E)-2-(1H-indazol-4-yl)vinyl]pyrimidin-2-yl}amino)-N-piperidin-4-ylbenzenesulfonamide]
173 | 5.1 | NC1CCN(S(=O)(=O)c2ccc(Nc3ncc(/C=C/c4cccc5[nH]ncc45)cn3)cc2)CC1 [N-{4-[(4-aminopiperidin-1-yl)sulfonyl]phenyl}-5-[(E)-2-(1H-indazol-4-yl)vinyl]pyrimidin-2-amine]
124 | 3.9 | O=S(=O)(CCCN1CCCC1)c1ccc(Nc2ncc(/C=C/c3cccc4[nH]ncc34)cn2)cc1 [5-[(E)-2-(1H-indazol-4-yl)vinyl]-N-{4-[(3-pyrrolidin-1-ylpropyl)sulfonyl]phenyl}pyrimidin-2-amine]
